This assay addresses imidazoline I2 binding site (Oryctolagus cuniculus). Kind of assay: In vitro binding affinity determined against imidazoline receptor I-2 using rabbit kidney preparation.

A value given as a limit tells only on which side of the number the result lay.

Usually Ki stands for the dissociation constant of the complex between target and ligand, obtained from inhibition or displacement. A higher Ki goes with lower affinity. Turning to `c1cc2c3c(c1)OC(C1=NCCN1)CN3CCCC2` (stereo unspecified) [2-(4,5-Dihydro-1H-imidazol-2-yl)-1,2,7,8,9,10-hexahydro-3-oxa-10a-aza-cyclohepta[de]naphthalene], affinity was put at a Ki of 643 nM.
As for `CN1CC(C)(C2=NCCN2)Oc2ccccc21` (stereo unspecified) [2-(4,5-Dihydro-1H-imidazol-2-yl)-2,4-dimethyl-3,4-dihydro-2H-benzo[1,4]oxazine], the figure is > 10000 nM.
Molecule `c1ccc2c(c1)NCC(C1=NCCN1)O2` (stereo unspecified) [2-(4,5-Dihydro-1H-imidazol-2-yl)-3,4-dihydro-2H-benzo[1,4]oxazine] came in with a Ki of 51 nM.
Molecule `Cc1cccc2c1N(C)CC(C1=NCCN1)O2` (stereo unspecified) [2-(4,5-Dihydro-1H-imidazol-2-yl)-4,5-dimethyl-3,4-dihydro-2H-benzo[1,4]oxazine] yielded a Ki of 470 nM.
The value for `Cc1cc(C)c2c(c1)N(C)CC(C1=NCCN1)O2` (stereo unspecified) [2-(4,5-Dihydro-1H-imidazol-2-yl)-4,6,8-trimethyl-3,4-dihydro-2H-benzo[1,4]oxazine] was > 1000 nM; that for `Cc1ccc2c(c1)OC(C1=NCCN1)CN2C` (stereo unspecified) [2-(4,5-Dihydro-1H-imidazol-2-yl)-4,7-dimethyl-3,4-dihydro-2H-benzo[1,4]oxazine] was 47 nM; that for `Cc1cccc2c1OC(C1=NCCN1)CN2C` (stereo unspecified) [2-(4,5-Dihydro-1H-imidazol-2-yl)-4,8-dimethyl-3,4-dihydro-2H-benzo[1,4]oxazine] was 54 nM.
On to `CCCC1(C2=NCCN2)CN(C)c2ccccc2O1` (stereo unspecified) [2-(4,5-Dihydro-1H-imidazol-2-yl)-4-methyl-2-propyl-3,4-dihydro-2H-benzo[1,4]oxazine], for which the Ki is 8530 nM.
The value for `COC(=O)c1ccc2c(c1)N(C)CC(C1=NCCN1)O2` (stereo unspecified) [2-(4,5-Dihydro-1H-imidazol-2-yl)-4-methyl-3,4-dihydro-2H-benzo[1,4]oxazine-6-carboxylic acid methyl ester] was 7 nM; that for `CN1CC(C2=NCCN2)Oc2cc3ccccc3cc21` (stereo unspecified) [2-(4,5-Dihydro-1H-imidazol-2-yl)-4-methyl-3,4-dihydro-2H-naphtho[2,3-b][1,4]oxazine] was 278 nM.
As for `CCOCc1ccc2c(c1)N(C)CC(C1=NCCN1)O2` (stereo unspecified) [2-(4,5-Dihydro-1H-imidazol-2-yl)-6-ethoxymethyl-4-methyl-3,4-dihydro-2H-benzo[1,4]oxazine], the figure is 17 nM.
As for `COc1cc(=O)n2c3c(cccc13)OC(C1=NCCN1)C2` (stereo unspecified) [2-(4,5-Dihydro-1H-imidazol-2-yl)-6-methoxy-2,3-dihydro-1-oxa-3a-aza-phenalen-4-one], the figure is 750 nM; as for `Cc1ccc2c3c1CCCN3CC(C1=NCCN1)O2` (stereo unspecified) [2-(4,5-Dihydro-1H-imidazol-2-yl)-7-methyl-2,3,5,6-tetrahydro-4H-1-oxa-3a-aza-phenalene], > 1000 nM; as for `c1cc2c3c(c1)OC(C1=NCCN1)CN3CC2` (stereo unspecified) [4-(4,5-Dihydro-1H-imidazol-2-yl)-1,2,3,4-tetrahydro-5-oxa-2a-aza-acenaphthylene], 33 nM.
`CN1CC(C2=NCCN2)Oc2ccc(Cl)cc21` (stereo unspecified) [6-Chloro-2-(4,5-dihydro-1H-imidazol-2-yl)-4-methyl-3,4-dihydro-2H-benzo[1,4]oxazine] yielded a Ki of 173 nM.
As for `CN1CC(C2=NCCN2)Oc2ccc(CO)cc21` (stereo unspecified) [[2-(4,5-Dihydro-1H-imidazol-2-yl)-4-methyl-3,4-dihydro-2H-benzo[1,4]oxazin-6-yl]-methanol], the figure is 100 nM.

The record behind these values is BindingDB's records for doi:10.1021/jm021050c (Universit&#233, 2003).
